The values below come from patent publication US20080207641A1 (Synta Pharmaceuticals Corp., priority 2006, published 2008).

Data set [1] in a line: Pharmacokinetic profile / oral bioavailability in male SD rats. In kind it is in vivo. The following applies: rat; for AUC(0-inf) / AUC(0-t) / Cmax / Tmax / half-life: plasma. Here is the method:
The pharmacokinetic profile of 3-fluoro-N-(4-(4-methyl-1-(thiazol-2-yl)-1,2,5,6-tetrahydro pyridin-3-yl)phenyl)isonicotinamide dihydrochloride was studied in male SD rats. Rats were bled at 5 min (IV only), 15 min, 30 min, 1 h, 2 h, 4 h, 6 h, 8 h and 24 h. Samples were prepared by mixing 50 μL of plasma, 5 μL, DMSO, and 250 μL of ACN, followed by shaking for 5 min, centrifuging at 4400 rpm for 15 min at 8° C. 225 μL of supernatant was vacuum dried, reconstituted with 180 μL of 20% ACN (10 mM NH4OAc), shaken for ˜2 min and transferred to 96MT plate. Samples were analyzed by HPLC, Phenomenex Onyx Monolithic C18, 4.6×100 mm column eluted with 30-95% ACN (10 mM NH4OAc) gradient. Detection was at 280 nm.

Data set [2] is described as follows: Solubility of salts (water solubility). In kind it is physicochemical. To be noted: for Water Solubility: salts of the parent compound.
The nature of data set [3]: Solubility in simulated gastric fluids. In kind it is physicochemical. From the text: Solubility in Simulated Gastric Fluids
Another data set has as its system IL-2 production. In words: Inhibition of IL-2 production in PHA-activated Jurkat cells (ELISA). In kind it is cell-based. To be noted: Homo sapiens, 20 h, PHA 2.5 μg/mL, 20 hours at 37° C., IL-2 ELISA. Here is the method:
Jurkat cells were placed in a 96 well plate (0.5 million cells per well in 1% FBS medium) then a test compound of this invention was added at different concentrations. After 10 minutes, the cells were activated with PHA (final concentration 2.5 μg/mL) and incubated for 20 hours at 37° C. under CO2. The final volume was 200 μL. Following incubation, the cells were centrifuged and the supernatants collected and stored at −70° C. prior to assaying for IL-2 production. A commercial ELISA kit (IL-2 Eli-pair, Diaclone Research, Besancon, France) was used to detect production of IL-2, from which dose response curves were obtained. The IC50 value was calculated as the concentration at which 50% of maximum IL-2 production after stimulation was inhibited versus a non-stimulation control.
On the technique in general: ELISA stands for enzyme-linked immunosorbent assay.

Each structure is given as a SMILES string. Converted amounts (≈) assume the structure as drawn.

On to `CC1=C(c2ccc(NC(=O)c3ccncc3F)cc2)CN(c2nccs2)CC1.Cl.Cl` [3-fluoro-N-(4-(4-methyl-1-(thiazol-2-yl)-1,2,5,6-tetrahydropyridin-3-yl)phenyl)isonicotinamide dihydrochloride], for which, in data set [1] (in vivo, PO, 50 mg/kg, 0.5% MC, read-out: % F (oral bioavailability)), the bioavailability was determined as 93.4%. Also, in data set [1] (IV, 5 mg/kg, DRD formulation), the AUC(0-inf) came to 37.6 µM·h, the area under the curve AUC(0-t) came out at 37.5 µM·h, the Cmax worked out at 34.6 µM and the Tmax is 0.083 h. For the same molecule, the half-life in data set [1] (IV, 5 mg/kg, DRD formulation) is 1 h. Further, in data set [1] (PO, 50 mg/kg, 0.5% MC), the total exposure AUC(0-inf) was determined as 351 µM·h, the exposure AUC(0-t) was 348 µM·h, the concentration peaked (Cmax) at 43.5 µM and the Tmax was found to be 2 h. For the same molecule, the half-life in data set [1] (PO, 50 mg/kg, 0.5% MC) is 3.2 h. Also, the solubility in data set [2] (dihydrochloride salt) is above 12000 µg/mL.
In the case of `CC1=C(c2ccc(NC(=O)c3ccncc3F)cc2)CN(c2nccs2)CC1` [HBr, 3-fluoro-N-(4-(4-methyl-1-(thiazol-2-yl)-1,2,5,6-tetrahydropyridin-3-yl)phenyl)isonicotinamide], the “Water Solubility” value in data set [2] worked out at 11560 µg/mL.
On the same count and under the same terms, for `CC1=C(c2ccc(NC(=O)c3ccncc3F)cc2)CN(c2nccs2)CC1` [Succinate, 3-fluoro-N-(4-(4-methyl-1-(thiazol-2-yl)-1,2,5,6-tetrahydropyridin-3-yl)phenyl)isonicotinamide] the value was 360 µg/mL.
Same read-out and setting: to `CC1=C(c2ccc(NC(=O)c3ccncc3F)cc2)CN(c2nccs2)CC1` [Tartrate, 3-fluoro-N-(4-(4-methyl-1-(thiazol-2-yl)-1,2,5,6-tetrahydropyridin-3-yl)phenyl)isonicotinamide] belongs 1340 µg/mL.
Consider `CC1=C(c2ccc(NC(=O)c3c(F)cccc3F)cn2)CN(c2nccs2)CC1` [Compound 11, 2,6-difluoro-N-(6-(4-methyl-1-(thiazol-2-yl)-1,2,5,6-tetrahydropyridin-3-yl)pyridin-3-yl)benzamide], for which the concentration in solution in data set [3] (simulated gastric fluid) (solubility) was 100 µM (≈ 41.2 µg/mL). The same molecule displayed a concentration for half-maximal inhibition (IC50) in the data set with IL-2 production of 75 to 150 nM.
Regarding `CC1=C(c2ccc(NC(=O)c3ccncc3F)cc2)CN(c2nccs2)CC1` [Citrate, 3-fluoro-N-(4-(4-methyl-1-(thiazol-2-yl)-1,2,5,6-tetrahydropyridin-3-yl)phenyl)isonicotinamide], in data set [2], the “Water Solubility” value was 1190 µg/mL.
In data set [3] (simulated gastric fluid), `CC1=C(c2ccc(NC(=O)c3ccccc3F)nc2)CN(c2nnn(C)n2)CC1` [Compound 29, 2-fluoro-N-(5-(4-methyl-1-(2-methyl-2H-tetrazol-5-yl)-1,2,5,6-tetrahydropyridin-3-yl)pyridin-2-yl)benzamide] yielded a solubility of 50 µM (≈ 19.7 µg/mL). The molecule also showed a half-maximal inhibitory concentration (IC50) with IL-2 production of 35 to 75 nM.
As to `CC1=C(c2ccc(NC(=O)c3ccncc3F)cc2)CN(c2nccs2)CC1` [Compound H2SO4, 3-fluoro-N-(4-(4-methyl-1-(thiazol-2-yl)-1,2,5,6-tetrahydropyridin-3-yl)phenyl)isonicotinamide], the “Water Solubility” value in data set [2] turned out to be 12690 µg/mL.
Molecule `CC1=C(c2cnc(NC(=O)c3c(F)cccc3F)cn2)CN(c2ncco2)CC1` [Compound 30, 2,6-difluoro-N-(5-(4-methyl-1-(oxazol-2-yl)-1,2,5,6-tetrahydropyridin-3-yl)pyrazin-2-yl)benzamide] gave a solubility in data set [3] of 150 µM (≈ 59.6 µg/mL). For the same molecule, the concentration for half-maximal inhibition (IC50) in the data set with IL-2 production lay within 35 to 75 nM.
The matching figures for `CCC(Cl)C(=O)Nc1ccc(C2=C(C)CCN(c3nccs3)C2)cc1` (stereo not shown) [Compound 15, 2-chloro-N-(4-(4-methyl-1-(thiazol-2-yl)-1,2,5,6-tetrahydropyridin-3-yl)phenyl)butanamide]: 150 µM (≈ 56.4 µg/mL) and at most 35 nM.

Broadly, the bioavailability is the share of a dose that reaches the circulation, judged against a reference dose that is usually intravenous. Broadly, the AUC(0-inf) is total exposure, with the tail of the curve extrapolated. For orientation: AUC(0-t) means exposure summed from dosing to a finite time, without extrapolation to infinity. What is called Cmax is the peak of the concentration-time curve. As usually defined, the Tmax is the time from dosing to the highest level. What is called half-life is the time in which the quantity being followed falls by half. Higher therefore signals slow loss. In general, solubility refers to the concentration that dissolves in the medium under given conditions. In general, IC50 refers to the concentration that inhibits the measured activity by half. Read a high IC50 as lower potency.
